Data as given in publication PMC3395807 (Journal of Medicinal Chemistry, 2012).
“Also recorded” adds a separate entry of the source.

Experiments:
[1] = MTT cytotoxicity assay in BHK cells; settings: hamster
human plasma protein = test: Human plasma protein binding
rat plasma protein = test: Rat plasma protein binding
[2] = test system: human CYP450s (1A2, 2C9, 2C19, 2D6, and 3A4); test: Inhibition of five major human CYP450s; settings: 10 μM
DENV [3] = settings: DENV infected AG129 mice; cited from earlier work
mouse plasma protein = test: Mouse plasma protein binding
DENV [4] = test: DENV in-cell western assay in Huh7.5 cells; type: cell-based, dengue virus; settings: DENV infected Huh7.5 cells, side-by-side comparison, Figure 5A
DENV [5] = test: DENV virus yield reduction assay in BHK cells; type: cell-based, dengue virus (serotype 2, New Guniea C strain); settings: 0.8 to 20 μM, Figure 5B

| Structure (SMILES) | Human Plasma Protein Binding (human plasma protein) [% bound] | Rat Plasma Protein Binding (rat plasma protein) [% bound] | inhibition on any of the five major drug metabolizing human CYP450s [2] | Mouse Plasma Protein Binding (mouse plasma protein) [% bound] | CC50 [1] [µM] | in vivo antiviral efficacy (viremia) (DENV [3]) | antiviral activity in in-cell western assay (DENV [4]) | reduction of DENV titers (DENV [5]) |
| --- | --- | --- | --- | --- | --- | --- | --- | --- |
| OC[C@@H]1[C@@H](O)[C@H](O)[C@@H](O)CN1CC/C=C\CCOc1cc(F)ccc1F [Compound 5c, (2R,3R,4R,5S)-1-((Z)-6-(2,5-Difluorophenoxy)hex-3-en-1-yl)-2-(hydroxymethyl)piperidine-3,4,5-triol] |  |  |  |  | > 500 |  |  |  |
| CCCC(CCC)OCCCCCCN1C[C@H](O)[C@@H](O)[C@H](O)[C@H]1CO [Compound 1c] | 91 | 77 |  |  |  |  |  |  |
| COc1ccccc1OCCCCCCN1C[C@H](O)[C@@H](O)[C@H](O)[C@H]1CO [Compound 3s] | 65 | 70 | no inhibition |  |  |  |  |  |
| CCC(O)(CC)CCCCCCN1C[C@H](O)[C@@H](O)[C@H](O)[C@H]1CO [Compound 7, (2R,3R,4R,5S)-1-(7-Ethyl-7-hydroxynonyl)-2-(hydroxymethyl)piperidine-3,4,5-triol] | 33 | 30 |  |  |  | reducing viremia |  |  |
| OC[C@@H]1[C@@H](O)[C@H](O)[C@@H](O)CN1CCCCCCOCc1ccccc1 [Compound 3v, (2R,3R,4R,5S)-1-(6-(Benzyloxy)hexyl)-2-(hydroxymethyl)piperidine-3,4,5-triol] | 52 | 49 | no inhibition |  |  |  | much improved antiviral activity compared to compound 7 |  |
| OC[C@@H]1[C@@H](O)[C@H](O)[C@@H](O)CN1CCCCCCOC1CCCCCC1 [Compound 2l, (2R,3R,4R,5S)-1-(6-(Cycloheptyloxy)hexyl)-2-(hydroxymethyl)piperidine-3,4,5-triol] | 71 | 65 |  |  |  |  | much improved antiviral activity compared to compound 7 |  |
| OC[C@@H]1[C@@H](O)[C@H](O)[C@@H](O)CN1CCCCCCOc1cccc(C(F)(F)F)c1 [Compound 3p] | 93 | 90 |  |  |  |  |  |  |
| OC[C@@H]1[C@@H](O)[C@H](O)[C@@H](O)CN1CCCCCCOc1cc(F)ccc1F [Compound 3l, (2R,3R,4R,5S)-1-(6-(2,5-Difluorophenoxy)hexyl)-2-(hydroxymethyl)piperidine-3,4,5-triol] | 74 | 68 |  | 77 |  |  | much improved antiviral activity compared to compound 7; also recorded: the most potent one | being the most potent |

Second part, led by results:

| Human Plasma Protein Binding (human plasma protein) [% bound] | Rat Plasma Protein Binding (rat plasma protein) [% bound] | inhibition on any of the five major drug metabolizing human CYP450s [2] | Mouse Plasma Protein Binding (mouse plasma protein) [% bound] | Structure (SMILES) | CC50 [1] [µM] | in vivo antiviral efficacy (viremia) (DENV [3]) | antiviral activity in in-cell western assay (DENV [4]) | reduction of DENV titers (DENV [5]) |
| --- | --- | --- | --- | --- | --- | --- | --- | --- |
| 78 | 71 | no inhibition | 79 | OC[C@@H]1[C@@H](O)[C@H](O)[C@@H](O)CN1CCCCCCOc1cccc(F)c1 [Compound 3j, (2R,3R,4R,5S)-1-(6-(3-Fluorophenoxy)hexyl)-2-(hydroxymethyl)piperidine-3,4,5-triol] |  |  | much improved antiviral activity compared to compound 7 |  |
| 68 | 57 | no inhibition |  | CCCOc1cccc(CCCN2C[C@H](O)[C@@H](O)[C@H](O)[C@H]2CO)c1 [Compound 4b, (2R,3R,4R,5S)-2-(Hydroxymethyl)-1-(3-(3-propoxyphenyl)propyl)piperidine-3,4,5-triol] |  |  | much improved antiviral activity compared to compound 7 |  |
| 80 | 79 |  |  | Cc1cccc(OCCCCCCN2C[C@H](O)[C@@H](O)[C@H](O)[C@H]2CO)c1 [Compound 3c] |  |  |  |  |
